For 23 molecules, efficacy and IC50 cell viability results are on record in the supplement of paper PMC12137928.

The subject of assay [1] is HCT116. Put plainly: efficacy (maximum % inhibition of viability vs DMSO); higher = more cytotoxic. Conditions: 72 h. In a few lines: (§1)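 Luminescence was read with CellTiter-Glo in HCT116 cells seeded at 250 per well in 1536-well plates. Signals were scaled between vehicle at 0% and positive control at -100%, then pattern-corrected. IC50 and maximal efficacy were obtained by fitting a four-parameter Hill equation.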

Assay [2] concerns HCT116. Conditions: 72 h. The gist of the method: as §1

Molecules are shown by their SMILES. Where a name gives a salt, the structure may show the parent alone.

In assay [1] (ICRF193 200 nM), `CO[C@H]1C(=O)[C@]2(C)[C@@H](OC)C[C@H]3OC[C@@]3(OC(C)=O)[C@H]2[C@H](OC(=O)c2ccccc2)[C@]2(O)C[C@H](OC(=O)[C@H](O)[C@@H](NC(=O)OC(C)(C)C)c3ccccc3)C(C)=C1C2(C)C` [Cabazitaxel] had an efficacy of 65.5%. The IC50 cell viability is > 45.8 µM in assay [2] (ICRF193 0 nM) and 0.0058 µM in assay [2] (ICRF193 200 nM).
With `COc1ccc2cc3[n+](cc2c1OC)CCc1cc2c(cc1-3)OCO2` [Berberine], the results for the efficacy in assay [1] (ICRF193 0 nM) and in assay [1] (ICRF193 200 nM) were 50.1% and 56.1%, respectively. For the same molecule, the IC50 cell viability worked out at 23.1 µM in assay [2] (ICRF193 0 nM) and 10.3 µM in assay [2] (ICRF193 200 nM).
Regarding `Cc1nnc2n1-c1sc(CCc3ccc(CC(C)C)cc3)cc1C(c1ccccc1Cl)=NC2C` (centres undefined) [Israpafant], the efficacy was 98.7% in assay [1] (ICRF193 0 nM) and 114% in assay [1] (ICRF193 200 nM). The figures for the IC50 cell viability in assay [2] (ICRF193 0 nM) and in assay [2] (ICRF193 200 nM) were 16.4 µM and 23.1 µM, respectively.
In the same order, the values of `O=[N+]([O-])c1c(Cl)cccc1-c1c[nH]cc1Cl` [Pyrrolnitrin] are 54.1%, 55.5%, 14.6 µM and 18.3 µM.
On to `C=C1c2c(Cl)ccc(O)c2C(=O)C2=C(O)[C@]3(O)C(=O)C(C(N)=O)=C(O)[C@@H](N(C)C)[C@@H]3[C@@H](O)[C@H]12.O=C(O)c1cc(S(=O)(=O)O)ccc1O` [Meclocycline sulfosalicylate], for which the figures for the efficacy in assay [1] (ICRF193 0 nM) and in assay [1] (ICRF193 200 nM) were 54.3% and 64%, respectively. Besides, the values for the IC50 cell viability in assay [2] (ICRF193 0 nM) and in assay [2] (ICRF193 200 nM) were 20.6 µM and 29.1 µM, respectively.
In the same order, the values of `Fc1ccc(C(c2ccc(F)cc2)N2CCN(C/C=C/c3ccccc3)CC2)cc1` [Flunarizine] are 109%, 80%, 20.6 µM and 18.3 µM.
For `COc1cc([C@@H]2c3cc4c(cc3[C@@H](O[C@@H]3O[C@@H]5CO[C@@H](C)O[C@H]5[C@H](O)[C@H]3O)[C@H]3COC(=O)[C@H]23)OCO4)cc(OC)c1OP(=O)(O)O` [Etoposide  Phosphate], the efficacy in assay [1] (ICRF193 0 nM) was 60.8%; in assay [1] (ICRF193 200 nM), 79.9%. In addition, the values for the IC50 cell viability in assay [2] (ICRF193 0 nM) and in assay [2] (ICRF193 200 nM) were 0.517 µM and 0.366 µM, respectively.
In the same order, the values of `O=c1[nH]cc(F)c(=O)[nH]1` [Fluorouracil] are 59.5%, 55.4%, 10.3 µM and 20.6 µM.
Turning to `CCCCCCCCCCCCCCCC[N+](C)(C)Cc1ccccc1` [Benzylhexadecyldimethylammonium chloride], the figures for the efficacy in assay [1] (ICRF193 0 nM) and in assay [1] (ICRF193 200 nM) were 128% and 129%, respectively. Besides, the IC50 cell viability in assay [2] (ICRF193 0 nM) and in assay [2] (ICRF193 200 nM) was 18.3 µM throughout.
Take `COCCOC(=O)C1=C(C)NC(C)=C(C(=O)OC/C=C/c2ccccc2)C1c1cccc([N+](=O)[O-])c1` (centres undefined) [Cilnidipine]: the efficacy in assay [1] (ICRF193 0 nM) was determined as 82.3%; in assay [1] (ICRF193 200 nM) it was 103%. Further, the IC50 cell viability in assay [2] (ICRF193 0 nM) came out at 18.3 µM; in assay [2] (ICRF193 200 nM), 20.6 µM.
In the same order, the values of `COCc1c(C(C)C)nc(C(C)C)c(/C=C/[C@@H](O)C[C@@H](O)CC(=O)O)c1-c1ccc(F)cc1` [Cerivastatin sodium] are 106%, 102%, 1.03 µM and 0.92 µM.
Regarding `CCCSc1ccc2[nH]c(NC(=O)OC)nc2c1` [Albendazole], the efficacy in assay [1] (ICRF193 0 nM) was found to be 53%. The IC50 cell viability in assay [2] (ICRF193 0 nM) was 10.3 µM; in assay [2] (ICRF193 200 nM), > 45.8 µM.
`OCCN1CCN(CC/C=C2/c3ccccc3Sc3ccc(C(F)(F)F)cc32)CC1` [cis-Flupentixol]: the efficacy stood at 119% in assay [1] (ICRF193 0 nM) and 102% in assay [1] (ICRF193 200 nM). The IC50 cell viability came out at 25.9 µM in assay [2] (ICRF193 0 nM) and 16.4 µM in assay [2] (ICRF193 200 nM).
In the same order, the values of `CCSc1ccc2c(c1)N(CCCN1CCN(C)CC1)c1ccccc1S2` [Thiethylperazine dimalate] are 102%, 101%, 29.1 µM and 20.6 µM.
The molecule `CC(=O)N1CCN(c2ccc(OCC3COC(Cn4ccnc4)(c4ccc(Cl)cc4Cl)O3)cc2)CC1` (centres undefined) [Ketoconazole] registered an efficacy in assay [1] (ICRF193 200 nM) of 55.8%. Moreover, the IC50 cell viability is > 45.8 µM in assay [2] (ICRF193 0 nM) and 13 µM in assay [2] (ICRF193 200 nM).
With `Nc1nc(N)c2nc(-c3ccccc3)c(N)nc2n1` [Triamterene], the efficacy is 95.4% in assay [1] (ICRF193 0 nM) and 92.7% in assay [1] (ICRF193 200 nM). Besides, the IC50 cell viability in assay [2] (ICRF193 0 nM) and in assay [2] (ICRF193 200 nM) was 29.1 µM throughout.
Regarding `CN(C)[C@@H]1C(O)=C(C(N)=O)C(=O)[C@@]2(O)C(O)=C3C(=O)c4c(O)ccc(Cl)c4[C@@H](O)[C@H]3C[C@@H]12` [Demeclocycline hydrochloride], in assay [1] (ICRF193 200 nM), the efficacy was 40%. Also, the figures for the IC50 cell viability in assay [2] (ICRF193 0 nM) and in assay [2] (ICRF193 200 nM) were > 45.8 µM and 16.4 µM, respectively.
As for `CCCCCC(=O)O[C@]1(C(C)=O)CC[C@H]2[C@@H]3CCC4=CC(=O)CC[C@]4(C)[C@H]3CC[C@@]21C` [Hydroxyprogesterone caproate], in assay [1] (ICRF193 200 nM), the efficacy was determined as 56.4%. Also, the IC50 cell viability was > 45.8 µM in assay [2] (ICRF193 0 nM) and 16.4 µM in assay [2] (ICRF193 200 nM).
`COc1cc(NS(C)(=O)=O)ccc1Nc1c2ccccc2nc2ccccc12` [Amsacrine]: the figures for the efficacy in assay [1] (ICRF193 0 nM) and in assay [1] (ICRF193 200 nM) were 141% and 128%, respectively. Moreover, the IC50 cell viability in assay [2] (ICRF193 0 nM) and in assay [2] (ICRF193 200 nM) was 20.6 µM each time.
`CC(=O)[C@H]1CC[C@H]2[C@@H]3C=CC4=CC(=O)CC[C@@]4(C)[C@@H]3CC[C@]12C` [Dydrogesterone]: the efficacy in assay [1] (ICRF193 200 nM) was found to be 41.7%. Further, the IC50 cell viability is > 45.8 µM in assay [2] (ICRF193 0 nM) and 20.6 µM in assay [2] (ICRF193 200 nM).
As for `Clc1ccccc1C(c1ccccc1)(c1ccccc1)n1ccnc1` [Clotrimazole], the efficacy was determined as 102% in assay [1] (ICRF193 0 nM) and 94.7% in assay [1] (ICRF193 200 nM). The IC50 cell viability in assay [2] (ICRF193 0 nM) is 18.3 µM; in assay [2] (ICRF193 200 nM), 16.4 µM.
`CC1=NN(c2ccc(C)c(C)c2)C(=O)/C1=N\Nc1cccc(-c2cccc(C(=O)O)c2)c1O` [Eltrombopag olamine] registered an efficacy in assay [1] (ICRF193 0 nM) of 41.9%. In addition, the IC50 cell viability is 6.51 µM in assay [2] (ICRF193 0 nM) and > 45.8 µM in assay [2] (ICRF193 200 nM).
`CN1CCN(CCCN2c3ccccc3Sc3ccc(S(=O)(=O)N(C)C)cc32)CC1` [Thioproperazine dimethanesulfonate] yielded an efficacy in assay [1] (ICRF193 200 nM) of 46.2%. Also, the IC50 cell viability in assay [2] (ICRF193 0 nM) is > 45.8 µM; in assay [2] (ICRF193 200 nM), 20.6 µM.
